Test system: DMBA-induced tumors
Experiment: Regression of DMBA-induced tumors in female rats, 11-day treatment
Type: in vivo
Details: for total tumor volume of the treated group, day 3 / total tumor volume of the treated group, day 6 / total tumor volume of the treated group, day 10 / total tumor volume of the treated group upon sacrifice, day 11 / tumor volume of one specific animal, day 3 / tumor volume of one specific animal, day 6 / tumor volume of one specific animal, day 10 / tumor volume of one specific animal, day 11: 20 μg/day s.c., b.i.d.; for total tumor volume of the treated group, day 3: day 3 of treatment; for total tumor volume of the treated group, day 6: day 6 of treatment; for total tumor volume of the treated group, day 10: day 10 of treatment; for total tumor volume of the treated group upon sacrifice, day 11 / tumor volume of one specific animal, day 11: day 11, sacrifice; for total tumor volume of the treated group at the beginning of the treatment: day 0, 100 days after 20 mg DMBA intragastric, all tumors of the group summed; for tumor volume of one specific animal at start of treatment / tumor volume of one specific animal, day 3 / tumor volume of one specific animal, day 6 / tumor volume of one specific animal, day 10 / tumor volume of one specific animal, day 11: one animal of the group; for total volume reduction in one specific animal: start to day 11
Experimental: In a group of 3 female, 50-day old rats, tumors were induced by intragastric feeding of 20 mg of 7,12-dimethylbenzanthracene (DMBA) in 2 ml. of sesame oil. The animals developed tumors within 10-12 weeks. All animals were maintained on normal rations for 100 days following the DMBA administration, at which time treatment with the compound identified as Compound A was started, using a b.i.d. regimen for 11 days, 20 μg/day, the compound being administered subcutaneously dissolved in isotonic saline containing 0.1% (wt/vol.) of bovine serum albumin.
The three animals carried a total of 7 tumors at the beginning of the treatment with a total volume of 39.2 cc. After 3 days, the 7 tumors had reduced to a volume of 26.7 cc; on day 6 the volume had reduced to 18.6 cc, on day 10 it was 8.7 cc, which was also the volume upon sacrifice of the animals on day 11.
The animals were prepared and pre-treated in the same fashion as those in Example 2, but Compound B was used for the 11-day treatment. The three rats used started the regimen with a total of 7 tumors of 43.3 cc total volume. Again, the tumor volumes were measured on days 3, 6, 10 and upon sacrifice, showing 37.5, 24.9, 16.3 and 15.0 cc respectively.
Except for the use of Compound C, all steps of the preceding two examples were repeated. The total of 13.4 cc of volume of 3 tumors in two rats was reduced to 10.1, 5.4, 6.4 and 5.5 cc on days 3, 6, 10 and 11. […] However, that tumor was found reduced to 3.0 cc on day 11. A third animal treated in the same fashion started out the regimen with 4 tumors of 28.1 cc which reduced to 15 cc by day 6. The animal died thereafter of causes diagnosed as having no connection with the tumors or the treatment (chronic murine pneumonia).

Structure (SMILES) | total tumor volume of the treated group, day 3 [cc] | total tumor volume of the treated group, day 6 [cc] | total tumor volume of the treated group, day 10 [cc] | total tumor volume of the treated group upon sacrifice, day 11 [cc] | total tumor volume of the treated group at the beginning of the treatment (baseline) [cc] | tumor volume of one specific animal at start of treatment (baseline) [cc] | tumor volume of one specific animal, day 3 [cc] | tumor volume of one specific animal, day 6 (day 6) [cc] | tumor volume of one specific animal, day 10 (day 10) [cc] | tumor volume of one specific animal, day 11 [cc] | total volume reduction in one specific animal [%] | volume of one single tumor in one animal, day 6 (single tumor that spontaneously increased between days 6 and 10, day 6) [cc] | volume of one single tumor in one animal, day 10 (single tumor that spontaneously increased between days 6 and 10, day 10) [cc] | volume of one single tumor in one animal, day 11 (single tumor that spontaneously increased between days 6 and 10, day 11) [cc] | tumor volume of a third animal with 4 tumors at start of regimen (third animal, not in the group total, baseline) [cc] | tumor volume of a third animal with 4 tumors, by day 6 (third animal, not in the group total, day 6, animal died thereafter of unrelated chronic murine pneumonia) [cc]
CCNC(=O)[C@@H]1CCCN1C(=O)[C@H](CCCNC(=N)N)NC(=O)[C@H](CC(C)C)NC(=O)[C@@H](Cc1c[nH]c2ccccc12)NC(=O)[C@H](Cc1ccc(O)cc1)NC(=O)[C@H](CO)NC(=O)[C@H](Cc1c[nH]c2ccccc12)NC(=O)[C@H](Cc1c[nH]cn1)NC(=O)[C@@H]1CCC(=O)N1 [Compound A] | 26.7 | 18.6 | 8.7 | 8.7 | 39.2 | 11.65 | 7.5 | 8.1 | 3.8 | 3.76 | 67.7 |  |  |  |  | 
CCNC(=O)[C@@H]1CCCN1C(=O)[C@H](CCCNC(=N)N)NC(=O)[C@H](CC(C)C)NC(=O)[C@@H](Cc1ccccc1)NC(=O)[C@H](Cc1ccc(O)cc1)NC(=O)[C@H](CO)NC(=O)[C@H](Cc1c[nH]c2ccccc12)NC(=O)[C@H](Cc1c[nH]cn1)NC(=O)[C@@H]1CCC(=O)N1 [Compound C] | 10.1 | 5.4 | 6.4 | 5.5 | 13.4 |  |  |  |  |  |  | 0.38 | 4.6 | 3.0 | 28.1 | 15
CCNC(=O)[C@@H]1CCCN1C(=O)[C@H](CCCNC(=N)N)NC(=O)[C@H](CC(C)C)NC(=O)[C@@H](Cc1ccc(O)cc1)NC(=O)[C@H](Cc1ccc(O)cc1)NC(=O)[C@H](CO)NC(=O)[C@H](Cc1c[nH]c2ccccc12)NC(=O)[C@H](Cc1c[nH]cn1)NC(=O)[C@@H]1CCC(=O)N1 [Compound B] | 37.5 | 24.9 | 16.3 | 15.0 | 43.3 | 3.6 | 2.5 | 1.33 | 0.73 | 0.125 | 96.5 |  |  |  |  | 

From patent US4071622A, “Treatment of a mammary or DMBA inducible tumor” (Abbott Laboratories, priority 1976, dated 1978)
